Experimental data as given in the supplement of paper PMC10307832.

Columns and labels:
Test in all cases: relative viability (nuclei count vs DMSO), 5 days (fraction); higher = more cells survive
[1] = compound: CCn1c(-c2nonc2N)nc2c(C#CC(C)(C)O)ncc(OC[C@H]3CCCNC3)c21 + CS(=O)(=O)CCNCc1ccc(-c2ccc3ncnc(Nc4ccc(OCc5cccc(F)c5)c(Cl)c4)c3c2)o1 [Lapatinib] (partner 2 µM)
Summary of the method: (§1)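 Nuclei were stained with Hoechst during a one-step fixation (final 0.05% Triton X-100, 1% formaldehyde, 1 ug/ml Hoechst) carried out 5 days after dosing, then counted on 4× images. The cells, lung cancer lines in 1536-well plates, had been dosed by pin tool the day after seeding with one drug alone or a fixed anchor-drug dose plus five library-drug doses (not always all listed) in √10 steps. Relative viability is the nuclei count in treated wells divided by that in vehicle wells, and each value is the median of duplicate plates.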

[2] = compound: CCn1c(-c2nonc2N)nc2c(C#CC(C)(C)O)ncc(OC[C@H]3CCCNC3)c21 + Cc1nc(Nc2ncc(C(=O)Nc3c(C)cccc3Cl)s2)cc(N2CCN(CCO)CC2)n1 [Dasatinib] (partner 0.075 µM)
Summary of the method: as §1

[3] = compound: CCOC1=CC=CC=C1N=NC2=C(NN(C2=O)C3=NC(=CS3)C4=CC=CC=C4)C [BAM7] + COc1cccc2cc(-c3nc([C@H]4CC[C@H](C(=O)O)CC4)n4ncnc(N)c34)[nH]c12 [OSI-027] (partner 0.5 µM)
Summary of the method: as §1

[4] = compound: CCOC1=CC=CC=C1N=NC2=C(NN(C2=O)C3=NC(=CS3)C4=CC=CC=C4)C [BAM7] + CS(=O)(=O)N1CCN(Cc2cc3nc(-c4cccc5[nH]ncc45)nc(N4CCOCC4)c3s2)CC1 [Pictilisib] (partner 1 µM)
Summary of the method: as §1

Cell Line | relative viability ([1]; first compound 0.01 µM) | relative viability ([1]; first compound 0.03162 µM) | relative viability ([1]; first compound 0.1 µM) | relative viability ([1]; first compound 0.3162 µM) | relative viability ([1]; first compound 1 µM) | relative viability ([2]; first compound 0.01 µM) | relative viability ([2]; first compound 0.03162 µM) | relative viability ([2]; first compound 0.1 µM) | relative viability ([2]; first compound 0.3162 µM) | relative viability ([2]; first compound 1 µM) | relative viability ([3]; first compound 0.5 µM) | relative viability ([3]; first compound 5 µM) | relative viability ([3]; first compound 15.81 µM) | relative viability ([3]; first compound 50 µM) | relative viability ([4]; first compound 0.5 µM) | relative viability ([4]; first compound 5 µM) | relative viability ([4]; first compound 15.81 µM) | relative viability ([4]; first compound 50 µM)
NCI-H460 | 0.949 | 1.14 | 1.02 | 0.862 | 0.775 | 0.526 | 0.461 | 0.533 | 0.45 | 0.516 | 0.525 | 0.468 | 0.55 | 0.624 | 0.439 | 0.485 | 0.411 | 0.381
EKVX | 0.235 | 0.203 | 0.223 | 0.206 | 0.223 | 0.508 | 0.629 | 0.533 | 0.568 | 0.525 | 0.648 | 0.768 | 0.557 | 0.662 | 0.458 | 0.512 | 0.335 | 0.415
NCI-H358 | 0.453 | 0.485 | 0.449 | 0.4 | 0.398 | 0.196 | 0.19 | 0.169 | 0.135 | 0.183 | 0.832 | 0.899 | 0.796 | 0.908 | 0.296 | 0.366 | 0.327 | 0.359
EPLC-272H | 0.905 | 0.998 | 0.907 | 0.788 | 0.909 | 0.357 | 0.413 | 0.382 | 0.334 | 0.397 | 0.289 |  | 0.277 | 0.32 | 0.358 | 0.327 | 0.323 | 0.347
NCI-H1563 | 0.93 | 0.94 | 0.924 | 0.926 | 0.781 | 0.449 | 0.437 | 0.441 | 0.511 | 0.446 | 0.729 | 0.721 | 0.763 | 0.791 | 0.651 | 0.714 | 0.642 | 0.639
NCI-H1395 | 0.815 | 0.842 | 0.858 | 0.769 | 0.869 | 0.448 | 0.387 | 0.395 | 0.393 | 0.386 | 0.684 | 0.67 | 0.704 | 0.97 | 0.612 | 0.714 | 0.702 | 0.683
NCI-H2126 | 0.779 | 0.773 | 0.641 | 0.731 | 0.755 | 0.587 | 0.468 | 0.597 | 0.579 | 0.677 | 0.662 | 0.733 | 0.736 | 0.641 | 0.514 | 0.448 | 0.507 | 0.479
